Data as given in patent publication US6140051A, “Fluorescent dibenzazole derivatives and methods related thereto” (priority 1998, dated 2000).
Counter-ions that a name gives are not always drawn. Like-named read-outs stand apart in the source and are kept apart here. Values belong to the molecule of their own block, whether it stands above or below them. {BBTE} = label added with the BBTE phosphoramidite

Experiments:
[1] = background, known fluorophores; cited from earlier work
[2] = cited from earlier work
[3] = pH dependence of fluorescence; assay type: physicochemical
Source text: To make the phenolic fluorophore fully fluorescent at a lower pH (7-8) to achieve the best performance for some enzymatic and biological assays, some fluorophores are synthesized with electronegative substituent(s), e.g., chloride, bromide, iodide, fluoride, trifluoromethyl, --SO3 H, etc. These substituted derivatives may be analyzed at different pH's for their fluorescent efficiency. The dependence of fluorescent intensity on pH for some preferred compounds of the invention, and comparative compounds, are shown in FIG. 3. Compared to the unsubstituted compound, BBT (also shown in the graph, U.S. Pat. No. 5,424,440), the electronegatively substituted BBT derivatives, especially CIBBT, can reach their maximum fluorescence at a pH very close to physiological conditions (pH 7-8). The pH dependent characteristic change of fluorescent intensity of these fluorophores can also find applications as pH titration fluorescent indicators.

[4] = phenolic hydroxyl; cited from earlier work
[5] = Fluorescence properties measured at pH about 10 in AttoPhos buffer; assay type: physicochemical
Description: * The fluorescence is measured at pH about 10 in AttoPhos buffer (JBL
Scientific, San Luis Obispo, CA).
In the following examples, NMR data were measured by a Bruker AC-300 300 MHz instrument; mass spectra were obtained on a VG Platform, Fisons Instruments; fluorescence data were obtained from a Perkin Elmer Luminescence Spectrometer, Model LS50B.

β-galactosidase = target: T1, β-galactosidase (Escherichia coli, UniProt P00722); assay: Enzymatic activity test, β-galactosidase; assay type: biochemical, E. Coli; conditions: 1 mg in 10 ml 0.1 M potassium phosphate buffer pH 7, 10 mM DTT, 1 mM MgCl2
T1 construct: purchased ICN Biomedicals, Inc. 104939; host or cells: E. Coli
T1 sequence (P00722 2-1024): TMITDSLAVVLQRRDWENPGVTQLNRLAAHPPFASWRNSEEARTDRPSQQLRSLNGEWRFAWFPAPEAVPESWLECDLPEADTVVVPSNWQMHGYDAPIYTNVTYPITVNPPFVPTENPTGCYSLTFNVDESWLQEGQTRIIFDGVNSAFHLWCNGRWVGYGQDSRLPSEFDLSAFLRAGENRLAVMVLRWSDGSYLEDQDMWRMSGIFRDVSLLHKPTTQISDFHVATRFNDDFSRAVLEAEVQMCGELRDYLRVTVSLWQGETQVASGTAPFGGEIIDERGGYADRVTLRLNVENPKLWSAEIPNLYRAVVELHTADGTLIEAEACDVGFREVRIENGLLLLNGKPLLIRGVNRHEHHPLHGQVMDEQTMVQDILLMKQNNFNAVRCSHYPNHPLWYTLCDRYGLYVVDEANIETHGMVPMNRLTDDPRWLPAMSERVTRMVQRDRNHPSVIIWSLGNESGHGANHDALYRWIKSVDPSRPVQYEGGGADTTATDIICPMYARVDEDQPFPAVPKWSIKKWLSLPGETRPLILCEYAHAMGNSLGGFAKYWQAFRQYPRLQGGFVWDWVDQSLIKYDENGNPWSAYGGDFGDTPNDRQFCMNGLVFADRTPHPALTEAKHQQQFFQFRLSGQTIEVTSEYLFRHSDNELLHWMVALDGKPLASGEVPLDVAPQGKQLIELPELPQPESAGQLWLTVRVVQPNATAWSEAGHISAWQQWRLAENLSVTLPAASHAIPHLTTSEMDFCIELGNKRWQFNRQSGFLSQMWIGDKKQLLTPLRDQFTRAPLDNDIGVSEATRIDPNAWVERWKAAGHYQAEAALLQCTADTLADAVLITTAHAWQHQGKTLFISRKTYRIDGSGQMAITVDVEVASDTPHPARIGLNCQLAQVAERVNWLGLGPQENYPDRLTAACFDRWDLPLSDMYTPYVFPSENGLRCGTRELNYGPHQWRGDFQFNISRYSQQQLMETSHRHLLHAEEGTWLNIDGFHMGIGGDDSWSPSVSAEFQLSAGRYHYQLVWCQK
Description: (2) β-Galactosidase: 1 mg BEBTESG was dissolved in 10 ml 0.1 M potassium phosphate buffer (pH 7) containing 10 mM DTT and 1 mM MgCl2 and a small quantity of β-galactosidase (Cat. No. 104939, E. Coli, ICN Biomedicals, Inc.) was added.

[6] = target: T2, alkaline phosphatase (Calf Intestine) (Bos taurus, UniProt P19111); assay: Enzymatic activity test, alkaline phosphatase; assay type: biochemical; conditions: 1 mg in 10 ml AttoPhos buffer
T2 construct: purchased Calzyme, San Luis Obispo, Calif; host or cells: calf intestine
T2 sequence (P19111 20-506 limits assumed): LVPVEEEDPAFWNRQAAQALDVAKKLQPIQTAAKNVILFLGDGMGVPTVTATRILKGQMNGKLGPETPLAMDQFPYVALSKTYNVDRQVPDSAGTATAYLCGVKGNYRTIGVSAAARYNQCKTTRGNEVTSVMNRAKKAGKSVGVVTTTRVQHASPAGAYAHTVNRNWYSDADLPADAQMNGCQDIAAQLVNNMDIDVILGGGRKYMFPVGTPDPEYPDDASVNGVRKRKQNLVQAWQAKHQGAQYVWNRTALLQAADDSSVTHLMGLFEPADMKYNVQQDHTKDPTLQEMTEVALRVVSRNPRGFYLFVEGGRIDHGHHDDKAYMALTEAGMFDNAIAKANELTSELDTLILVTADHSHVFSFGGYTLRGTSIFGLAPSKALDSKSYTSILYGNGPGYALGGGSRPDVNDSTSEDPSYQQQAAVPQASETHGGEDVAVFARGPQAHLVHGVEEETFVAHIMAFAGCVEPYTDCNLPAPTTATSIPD
Description: (1) Alkaline Phosphatase: 1 mg BEBTP was dissolved in 10 ml AttoPhos buffer (JBL Scientific, San Luis Obispo, Calif.). A small quantity of alkaline phosphatase (Calf Intestine, Calzyme, San Luis Obispo, Calif.) was added.

[7] = test system: Esterase from Porcine Liver; assay: Esterase activity towards BBT acyl derivatives; assay type: biochemical; conditions: 100 mM Tris HCl pH 8.0; Ex 440 nm, Em 550 nm; FIG. 4
Description: Buffer: 100 mM Tris. HCl, pH 8.0.
Substrate Stock Solution: 2 mM acyl BBT dioxane solution.
Enzymes: All enzymes were from Sigma: Esterase from Porcine Liver(E3 128); Lipase from Pseudomonas species (L9518); Lipase from Candida cylindracea (L1754). Dilute the enzyme by the buffer to the desired concentration before use.
Instrument: Squoia-Tumer Fluorometer, Model 450. Excitation at 440 nm and Emission at 550 nm.
1. Set the Fluorometer Gain to 200.
2. Set the Fluorometer Zero to 0 with the Tris buffer.
3. Set the Fluorometer Span to 1000 using JBL 10 ng BBT (FEY) standard solution.
4. Pipette 980 μl buffer to a glass test tube (Baxter, Cat. No. T1290-3).
5. Add 10 μl substrate stock solution and mix well.
6. Measure and record the blank reading.
7. Add 10 μl enzyme solution.
8. Take fluorescence reading every one minute for 3 minutes and record.
9. Calculate the fluorescence unit change (FU/min) by subtracting the first-minute reading from the second-minute reading.
10. Plot FU/min vs. enzyme concentration, u/L (FIG. 4 and FIG. 5).

[8] = test system: Lipase from Pseudomonas species; assay: Lipase activity towards BBT acyl derivatives; assay type: biochemical; conditions: 100 mM Tris HCl pH 8.0; Ex 440 nm, Em 550 nm; FIG. 5; text says 'lipases'
Description: (3) Esterase and Lipase: Buffer: 100 mM Tris. HCl, pH 8.0. Substrate Stock Solution: 2 mM acyl BBT dioxane solution. Enzymes: All enzymes were from Sigma: Esterase from Porcine Liver(E3 128); Lipase from Pseudomonas species ([…]); Lipase from Candida cylindracea ([…]). Dilute the enzyme by the buffer to the desired concentration before use. Instrument: Squoia-Tumer Fluorometer, Model 450. Excitation at 440 nm and Emission at 550 nm. Procedure: 1. Set the Fluorometer Gain to 200. 2. Set the Fluorometer Zero to 0 with the Tris buffer. 3. Set the Fluorometer Span to 1000 using JBL 10 ng BBT (FEY) standard solution. 4. Pipette 980 μl buffer to a glass test tube (Baxter, Cat. No. T1290-3). 5. Add 10 μl substrate stock solution and mix well. 6. Measure and record the blank reading. 7. Add 10 μl enzyme solution. 8. Take fluorescence reading every one minute for 3 minutes and record. 9. Calculate the fluorescence unit change (FU/min) by subtracting the first-minute reading from the second-minute reading. 10. Plot FU/min vs. enzyme concentration, u/L (FIG. 4 and FIG. 5).

[9] = aqueous; cited from earlier work
[10] = Fluorescence of labeled oligonucleotide on DNA electrophoresis gel; conditions: versus non-labeled oligonucleotide
Source text: (4) Fluorescence: The labeled BBTE-[…] (SEQ ID NO: 1) was separated on a standard DNA electrophoresis gel, along with the non-labeled […] (SEQ ID NO: 1).

pH at which the compound fully fluoresces [3]: 9-10 pH
Molecule: Oc1ccc2nc(-c3nc4ccccc4s3)sc2c1 [BBT, 2'-(2-Benzothiazolyl)-6'-hydroxy-benzothiazole]
ionization state (fluorescence) ([2]; pH 10.3 (ALP assay)): fully ionized
ionization state (fluorescence) ([2]; pH range of 6.0 to 8.0): only partially ionized
pKa [4]: 8.5
Stokes Shift [1]: 142 nm
λEM (wavelength of maximum emission) [1]: 561 nm
λEX (wavelength of maximum excitation) [1]: 419 nm

EM ([5]; Table 1): 550 nm
EX ([5]; Table 1): 422 nm
Stokes Shift ([5]; Table 1): 128 nm
Molecule: OCCc1ccc2nc(-c3nc4ccc(O)cc4s3)sc2c1 [BBTE]

EM ([5]; Table 2): 604 nm
EX ([5]; Table 2): 438 nm
Stokes Shift ([5]; Table 2): 166 nm
Molecule: Oc1ccc2nc(/C=C/c3nc4ccccc4o3)sc2c1 [BEBO, 2'-(2-benzoxazolylethenyl)-6'-hydroxybenzothiazole]

EM ([5]; Table 2): 620 nm
EX ([5]; Table 2): 440 nm
Stokes Shift ([5]; Table 2): 180 nm
Molecule: Oc1ccc2nc(/C=C/c3nc4ccccc4s3)sc2c1 [BEBT, 2'-(2-benzothiazolylethenyl)-6'-hydroxybenzothiazole]

pH at which maximum fluorescence is reached ([3]; FIG. 3): 7-8 pH
EM ([5]; Table 1): 550 nm
EX ([5]; Table 1): 435 nm
Stokes Shift ([5]; Table 1): 115 nm
Molecule: Oc1ccc2nc(-c3nc4ccccc4s3)sc2c1Cl [CIBBT, 2'-(Benzothiazol-2-yl)-7'-chloro-6'-hydroxybenzothiazole]

EM ([5]; Table 1): 552 nm
EX ([5]; Table 1): 423 nm
Stokes Shift ([5]; Table 1): 129 nm
Molecule: Oc1ccc2nc(-c3nc4ccccc4s3)sc2c1F [FBBT, 2'-(2-Benzothiazolyl)-7'-fluoro-6'-hydroxybenzothiazole]

EM ([5]; Table 2): 585 nm
EX ([5]; Table 2): 432 nm
Stokes Shift ([5]; Table 2): 153 nm
Molecule: Oc1ccc2nc(/C=C/c3nc4c(ccc5ccccc54)o3)sc2c1 [α-BENO]

EM ([5]; Table 2): 624 nm
EX ([5]; Table 2): 443 nm
Stokes Shift ([5]; Table 2): 181 nm
Molecule: Oc1ccc2nc(/C=C/c3nc4c(ccc5ccccc54)s3)sc2c1 [α-BENT]

EM ([5]; Table 2): 602 nm
EX ([5]; Table 2): 443 nm
Stokes Shift ([5]; Table 2): 159 nm
Molecule: Oc1ccc2nc(/C=C/c3nc4ccc5ccccc5c4o3)sc2c1 [β-BENO]

Second part, the molecule before the results:

Molecule: Oc1ccc2nc(-c3ccccc3)oc2c1 [2-Phenyl-6-hydroxybenzoxazole]
Stokes Shift [1]: 110 nm
λEM (wavelength of maximum emission) [1]: 460 nm
λEX (wavelength of maximum excitation) [1]: 370 nm

Molecule: Cc1cc(=O)oc2cc(O)ccc12 [4-Methylumbelliferone]
Stokes Shift [1]: 82 nm
λEM (wavelength of maximum emission) [1]: 449 nm
λEX (wavelength of maximum excitation) [1]: 367 nm

Molecule: O=C(O)Cc1ccc2nc(-c3nc4ccc(O)cc4s3)sc2c1 [BBTAA, 2'-(6-Hydroxybenzothiazol-2-yl)-benzothiazole-6'-acetic acid]
EM ([5]; Table 1): 549 nm
EX ([5]; Table 1): 430 nm
Stokes Shift ([5]; Table 1): 119 nm

Molecule: O=C(Cc1ccc2nc(-c3nc4ccc(O)cc4s3)sc2c1)NCCS(=O)(=O)O [BBTAAT]
EM ([5]; Table 1): 548 nm
EX ([5]; Table 1): 430 nm
Stokes Shift ([5]; Table 1): 118 nm

Molecule: O=S(=O)(O)CCc1ccc2nc(/C=C/c3nc4ccc(O[C@@H]5O[C@H](CO)[C@H](O)[C@H](O)[C@H]5O)cc4s3)sc2c1 [BEBTESG, 2'-((6-Sulfoethyl-2-benzothiazolyl)ethenyl)-6'-hydroxybenzothiazole β-D-Galactoside]
fluorescence on hydrolysis by β-galactosidase (β-galactosidase): orange red fluorescence was quickly developed

Molecule: O=P(O)(O)Oc1ccc2nc(/C=C/c3nc4ccccc4s3)sc2c1 [BEBTP, 2'-(2-Benzothiazolylethenyl)-6'-hydroxybenzothiazole phosphate di(2-amino-2-methyl 1,3-propanediol) salt]
fluorescence on hydrolysis by alkaline phosphatase [6]: orange red fluorescence was quickly developed

Molecule: O=C(O)Cc1ccc2nc(-c3nc4ccc(O)c(Cl)c4s3)sc2c1 [CIBBTAA, 2'-(7-Chloro-6-hydroxybenzothiazol-2-yl)-benzothiazole-6'-acetic acid]
EM ([5]; Table 1): 545 nm
EX ([5]; Table 1): 437 nm
Stokes Shift ([5]; Table 1): 108 nm

Molecule: CCN1C(=CC=Cc2oc3ccccc3[n+]2CCCCCC(=O)[O-])Oc2ccccc21 [Cy2]
Stokes Shift [1]: 18 nm
λEM (wavelength of maximum emission) [1]: 506 nm
λEX (wavelength of maximum excitation) [1]: 489 nm

Molecule: O=C1OC2(c3ccc(O)cc3Oc3cc(O)ccc32)c2ccccc21 [Fluorescein]
Stokes Shift [1]: 28 nm
λEM (wavelength of maximum emission) [1]: 520 nm
λEX (wavelength of maximum excitation) [1]: 492 nm

Molecule: CCC(=O)Oc1ccc2nc(-c3nc4ccccc4s3)sc2c1 [Propionyl BBT, 2'-(2-Benzothiazolyl)-6'-hydroxybenzothiazole Propionate]
substrate activity for porcine liver esterase [7]: very effective substrate
substrate activity for lipases [8]: very poor substrate

Molecule: CCN(CC)c1ccc2c(-c3ccccc3C(=O)O)c3ccc(=[N+](CC)CC)cc-3oc2c1 [Rhodamine]
Stokes Shift [1]: 35 nm
λEM (wavelength of maximum emission) [1]: 575 nm
λEX (wavelength of maximum excitation) [1]: 540 nm

Molecule: O=S(=O)(O)c1c(O)ccc2nc(-c3nc4ccccc4s3)sc12 [SBBT]
EM ([5]; Table 1): 538 nm
EX ([5]; Table 1): 420 nm
Stokes Shift ([5]; Table 1): 118 nm

Molecule: OC[C@H]1O[C@@H](Oc2ccc3nc(-c4nc5ccccc5s4)sc3c2)[C@H](O)[C@@H](O)[C@H]1O [galactoside of BBT]
solubility [9]: less than 1 mM

Molecule: CCCCCCCC/C=C\CCCCCCCC(=O)Oc1ccc2nc(-c3nc4ccccc4s3)sc2c1 [oleoyl BBT, 2'-(2-Benzothiazolyl)-6'-hydroxybenzothiazole Oleate]
substrate activity for porcine liver esterase [7]: low activity
substrate activity for lipases [8]: high activity

Molecule: BBTE-TCTCCCAGCGTGCGCCAT: oligonucleotide (SEQ ID NO: 1) labeled at the 5'-end with the BBTE phosphoramidite (5' {BBTE}, sugars by position and backbone not given here)
fluorescence on DNA electrophoresis gel [10]: strong yellow fluorescent band
